Laboratory results reported in patent publication US20260007741A1, “LIPID NANOPARTICLES FOR DELIVERY OF NUCLEIC ACIDS AND VACCINES” (priority 2024, published 2026).
Where two headings read alike, the source gives them in different places.

Tests used:
[1] = test system: TLR7/8; assay: In vivo inflammatory profile of UUGU oligoribonucleotides in LNP formulations using different ICLs (Example 28; serum and dLNs); parameters: species or system mice; details: 1 ug UUGU dose
Excerpt: Blood and dLNs (pooled iliac, popliteal and inguinal LNs) were harvested 6 hrs post-injection. […] No. 740622). LNs were weighed prior to lysis, and analyte concentrations were converted from pg/mL to pg/mg of tissue mass. […] The analyte concentrations in the blood serum are reported in Table 68 and the mean fold changes over vehicle treatment are shown in Table 69. The analyte concentrations in the dLNs are reported in Table 70 and the mean fold changes over vehicle treatment are shown in Table 71. The primary aim of this study was to examine the effect of various ionizable cationic lipids (ICLs) on the delivery of a UUGU oligoribonucleotide to TLR7/8 located intracellularly in endolysosomal compartments. We also sought to determine whether PS-targeting of LNPs influenced activity. […] UUGU oligos were encapsulated in LNPs formulated with KC-OA family ICLs, AKG-UO-DM2, DODMA, or DODAP. We also tested the ALC-0315 and SM-102 LNP formulations. The effect of PS targeting on biological activity was also assessed using either DOPS or DPPS formats.

[2] = test system: MutuDC1940 cells; assay: Transfection efficiency of mCherry mRNA LNPs in murine dendritic cells (flow cytometry); type: cell-based; details: for mRNA endosomal escape and translation / mRNA transfection: MutuDC1940 cells, mCherry mRNA LNPs; for transfection activity when incorporated into LNPs: murine dendritic cells (Example 8)
Description: • 1. MutuDC1940 cells (Applied Biological Materials, T0528) were grown according to supplier's instructions in T75 flasks. They were plated at 180,000 cells/well into 24-well plate one day prior to transfection. • 2. LNPs were added in triplicate to each well at the desired mRNA concentration (e.g. 1 μg/mL) in 1 mL media and after 24 h the cells were washed once with DPBS (VWR 02-0119-1000). • 3. 0.2 mL of DPBS (plus 5 mM EDTA, pH 7.4) was then added to facilitate detachment. • 4. The cells were placed at 37° C. for 3 min, until detached. • 5. 0.5 ml DPBS added to each well and the liquid transferred to a flow cytometry tube (Falcon 5 mL #352054). • 6. The tube was centrifuged at 1100 rpm for 3-5 min and the liquid poured off. • 7. 100 μL of Zombie Violet (Biolegend) (diluted 1:500 in PBS) was added to each tube. • 8. The tubes were gently tapped to resuspend cells and placed in the dark for 15 min at RT. • 9. To the cells 0.5 mL of (paraformaldehyde 4% in PBS:DPBS 1:1) was added and the cells flicked gently to resuspend and put on ice for 30 min. Another 2 ml PBS was added. • 10. The cells were pelleted as above and resuspended in 0.5 mL DPBS with 5% BSA and placed in the fridge until needed.
Cells suspensions were analyzed by an Attune NxT flow cytometer using the VL1 and YL2 for live/dead and mCherry fluorescence signals respectively. Gating analysis was performed on FloJo software.

[3] = for % of main lipid peak to To: 1% H2O2/100 μM Fe(III)Cl, 37° C.
Description: The aim of this studies was to compare stability of ionizable cationic lipids under accelerated oxidation.
Prior to the experiment, 75 μl of a lipid stock was mixed with 75 μl of ultra-pure water (Rx Biosciences, cat #P01-UPW02-1000) to make 0.5 mM of cationic lipids and 5 mM of linoleic acid respectively. A combined stock in water of 10% H2O2 (Sigma-Aldrich, cat #H1009) and 1 mM of Fe(III)Cl (Sigma-Aldrich, cat #372870) was freshly by prepared prior to the experiment. To make 1% final concentration of H2O2 and 100 μM Fe(III)Cl, 15 μl of 10% H2O2/1 mM Fe(III)C1 stock was added to 135 μl of individual lipids The liposomes and individual lipids were incubated with H2O2/Fe(III)C1 at 37° C. and then 5 μl from each sample was taken at different time points (0, 24, 48, 72 and 96 hours) and dissolved in 90 μl of MeOH for HPLC analysis. Degradation of the main lipid peak was analyzed using Thermo Scientific Vanquish Flex UHPLC occupied with Charged Aerosol Detector (CAD) and Phenomenex™ Kinetex C8 column (L=150 mm, D=2.1 mm, Particle Size=1.7 μm, 100 A).
The data are presented as a percentage of the main lipid peak measured at different time points relative to the lipid peak measured at time zero.

[4] = test system: human dendritic cells; assay: Transfection efficiency of mCherry mRNA LNPs in human dendritic cells (flow cytometry); details: human dendritic cells (Example 9)
Description: Four days prior to transfection, monocytes were isolated using CD14 isolation kit (StemCell) from PBMCs of healthy donors. […] The monocytes were cultured with IL-4 (R&D 1000 IU/mL) and GM-CSF (R&D, 800 IU/mL) in a 6 well dish at 1×10^6 cells/mL at 37° C., 5% CO2. After 4 days the immature DCs were harvested and seeded in a 96 well round bottom plate at 50,000 cells/well. LNPs were thawed by placing the vials in a 37° C. water bath for 30 seconds, or until the sample had almost fully melted. The vials were immediately placed on ice until use. The LNPs were added to final concentrations of 1 μg/ml and 0.1 μg/mL mRNA. For 1 μg/mL treatment, LNPs were added directly to each well then wells were mixed by pipetting. For 0.1 μg/mL treatment, LNPs were diluted 1:10 in complete media then added to each well and mixed by pipetting. After 4 h a maturation cytokine cocktail was added directly to each well consisting of TNF-α (R&D, 10 ng/mL), IL-1b (R&D, 2 ng/mL), IL-6 (R&D, 1000 IU/mL), and PGE1 (R&D, 1 μg/mL). After 24 h, the cells were centrifuged, washed in PBS and analyzed by flow cytometry for mCherry fluorescence. Gating analysis was performed using CytExpert software.

[5] = Semple et al., (2010) Nature Biotech. 28 (2) 172-176; cited from earlier work
[6] = Apparent solubility of phosphatidylserine salts in ethanol (shake flask); type: physicochemical; details: for Solubility, mM phosphatidylserine: 100% ethanol at room temperature, 24 hours, average±SD (N=3)
Description: Apparent solubilities of phosphatidylserine salts in ethanol were determined by shake flask technique. Sodium and ammonium salts of phosphatidylserines in the powder form were obtained from Avanti Polar Lipids (Alabama, USA). Aliquots of phosphatidylserine salt powder were placed in 12×75 borosilicate glass tubes in triplicate. Three mL of 200 proof ethanol (catalog number E-7023, MilliporeSigma, USA) were added, the tubes were closed with polyethylene snap caps, agitated using vortex mixer for 10-15 s to obtain uniform suspensions, and placed in a horizontal position on a rocking platform at room temperature (20-22° C.) overnight. The ambient temperature at the end of incubation was 20.4-20.9° C. After 24 hours incubation, the suspensions were visually checked for the presence of a solid phase, allowed to settle under gravity, and the supernatant solutions were passed through a 0.2-μm PTFE syringe membrane filters. The first 0.5 ml of the filtrate was discarded, the next 1 ml was collected, and phosphatidylserine in the filtrates was quantified by phospholipid phosphate assay as follows: 20 μL aliquots of the filtrate were taken in triplicate into glass tubes, ethanol was evaporated in a stream of argon at 70° C., and the residue was digested in a mixture of 60 μL concentrated sulfuric acid and 20 μL 30% hydrogen peroxide for 10 min at 180-190° C. The digested samples were diluted with 1 mL of deionized water, 20 μL of 10% sodium sulfite was added to destroy any residual peroxide, and the samples were incubated on a boiling water bath for 15 min to hydrolyze any condensed phosphate species. The samples were chilled down to room temperature, mixed with 0.2 mL of 2% (w/w) ammonium molybdate solution and 20 μL of 10% (w/w) ascorbic acid solution, incubated on a boiling water bath for 10 min, and chilled down in a water bath at room temperature. The phosphate concentration was determined from the optical density of the formed blue phosphomolybdic acid at 825 nm using five-point standard curve from concurrently run standards prepared from the NIST-traceable commercial phosphate standard solution diluted to cover the range of 0-2 mM phosphate (coefficient of determination R^2 >0.9999). Solubility of phosphatidylserine salts was expressed in molarity units of phosphatidylserine (Table 40). The data are average±SD (N=3).

[7] = test system: TLR9; assay: In vivo inflammatory profile of CpG-ODN 1018 in LNP formulations with various ICLs (Example 27; serum and dLNs); parameters: species or system BALB/c mice; details: 1 μg dose CpG

Q: With `CCCCCCCC/C=C\CCCCCCCCOC[C@H](CN(C)C)OCCCCCCCC/C=C\CCCCCCCC` [DODMA, reference compound] as the molecule, how does the “induction of a proinflammatory signature by UUGU LNPs by ICL” value [1] read?
A: The value was “most efficient”.

Q: Which “mRNA endosomal escape and translation / mRNA transfection” value [2] does the source give for `CCCCCCCC/C=C\CCCCCCCCC1(CCCCCCCC/C=C\CCCCCCCC)OC[C@H](CCN(C)C)O1` [KC2-OA, 2-((S)-2,2-di((Z)-octadec-9-en-1-yl)-1,3-dioxolan-4-yl)-N,N-dimethylethan-1-amine] here?
A: The value was “relatively efficient”.

Q: With `CCCCC/C=C\C/C=C\CCCCCCCCC1(CCCCCCCC/C=C\C/C=C\CCCCC)OCC(CCCN(C)C)O1` (stereo not drawn) [KC3, reference compound] as the molecule, how does the “degradation relative to other cationic lipids under the forced oxidation with H2O2” value [3] read?
A: The value was “fastest degradation”.

Q: What about the “% of main lipid peak to To” value ([3]; 24 h) of the same molecule?
A: Its value is 11.2 ± 1.0%.

Q: And the “% of main lipid peak to To” value ([3]; 48 h)?
A: The value was 10.5 ± 0.5%.

Q: And the “% of main lipid peak to To” value ([3]; 72 h)?
A: The value was 0 ± 0%.

Q: With `CCCCC/C=C\CCCC/C=C\CCCCCC1(CCCCC/C=C\CCCC/C=C\CCCCC)OC[C@H](CCCN(C)C)O1` [KC3-01, 3-((S)-2,2-di((6Z,12Z)-octadeca-6,12-dien-1-yl)-1,3-dioxolan-4-yl)-N,N-dimethylpropan-1-amine] as the molecule, how does the “transfection activity when incorporated into LNPs” value (from here on “transfection activity”) [4] read?
A: Its value is “highest activity”.

Q: For `CCCCC/C=C\C/C=C\CCCCCCCCC1(CCCCCCCC/C=C\C/C=C\CCCCC)OCC(CCN(C)C)O1` (stereo not drawn) [KC2], which “activity of KC2 compared to KC3” value [5] is on record?
A: The value was 6 fold.

Q: Which “ethanol solubility compared to ammonium salt of DSPS or the sodium salts” value [6] does the source give for `CCCCCCCCCCCCCCCC(=O)OC[C@H](COP(=O)(O)OC[C@H](N)C(=O)O)OC(=O)CCCCCCCCCCCCCCC.N` [DPPS ammonium] here?
A: The value was “several-fold higher”.

Q: What about the “Solubility, mM phosphatidylserine” value [6] of the same molecule?
A: The value was 0.865 ± 0.060 mM.

Q: What does the source list for `CCCCCCCC/C=C\CCCCCCCC(=O)OC[C@H](CCN(C)C)OC(=O)CCCCCCC/C=C\CCCCCCCC` [AKG-OA-DM2, (S)-4-(dimethylamino)butane-1,2-diyl dioleate]?
A: induction of a proinflammatory signature by UUGU LNPs by ICL [1]: most potent LNP adjuvant formulation; induction of a proinflammatory signature by UUGU LNPs by ICL ([1]; listed as AKG-UO-DM2): most efficient; levels of IL-12p70 and type I IFN-α in the blood and dLNs [7]: highest levels; mRNA endosomal escape and translation / mRNA transfection [2]: relatively poor for mRNA transfection

Q: Which “mRNA endosomal escape and translation / mRNA transfection” value [2] does the source give for `CCCCCCCC/C=C\CCCCCCCCC1(CCCCCCCC/C=C\CCCCCCCC)OCC(CCCCN(C)C)O1` (racemic) [KC4-OA, 4-rac-2,2-di((Z)-octadec-9-en-1-yl)-1,3-dioxolan-4-yl)-N,N-dimethylbutan-1-amine] here?
A: Its value is “relatively efficient”.

Q: With `CCCCCC/C=C\CCCCCCCCC1(CCCCCCCC/C=C\CCCCCC)OC[C@H](CCCN(C)C)O1` [KC3-PA, 3-((S)-2,2-di((Z)-hexadec-9-en-1-yl)-1,3-dioxolan-4-yl)-N,N-dimethylpropan-1-amine] as the molecule, how does the “transfection activity” value [4] read?
A: Its value is “highest activity”.

Q: And the “% of main lipid peak to To” value ([3]; 24 h)?
A: Its value is 62.7 ± 0.1%.

Q: What about the “% of main lipid peak to To” value ([3]; 48 h) of the same molecule?
A: Its value is 59.2 ± 0.8%.

Q: And the “% of main lipid peak to To” value ([3]; 72 h)?
A: Its value is 60.2 ± 0.6%.

Q: For `CCCCCCCCCCCCCCCCCC1(CCCCCCCCCCCCCCCCC)OC[C@H](CCCN(C)C)O1` [KC3-17, (S)-3-(2,2-diheptadecyl-1,3-dioxolan-4-yl)-N,N-dimethylpropan-1-amine], which “transfection activity” value [2] is on record?
A: The value was “completely inactive”.

Q: What about the “% of main lipid peak to To” value ([3]; 24 h) of the same molecule?
A: Its value is 92.9 ± 0.3%.

Q: What about the “% of main lipid peak to To” value ([3]; 48 h) of the same molecule?
A: The value was 91.8 ± 1.2%.

Q: What about the “% of main lipid peak to To” value ([3]; 72 h) of the same molecule?
A: Its value is 90.2 ± 1.2%.

Q: For `CCCCCCCC/C=C\CCCCCCCC1(CCCCCCC/C=C\CCCCCCCC)OC[C@H](CCCN(C)C)O1` [KC3-17 (C8:1), 3-((S)-2,2-di((Z)-heptadec-8-en-1-yl)-1,3-dioxolan-4-yl)-N,N-dimethylpropan-1-amine], which “transfection activity” value [4] is on record?
A: The value was “highest activity”.

Q: What about the “transfection activity” value [2] of the same molecule?
A: The value was “highest activity”.

Q: What about the “% of main lipid peak to To” value ([3]; 24 h) of the same molecule?
A: Its value is 66.1 ± 0.6%.

Q: And the “% of main lipid peak to To” value ([3]; 48 h)?
A: The value was 58.4 ± 1.5%.

Q: And the “% of main lipid peak to To” value ([3]; 72 h)?
A: The value was 45.9 ± 4.7%.

Q: Which “Solubility, mM phosphatidylserine” value [6] does the source give for `CCCCCCCCCCCCCCCC(=O)OC[C@H](COP(=O)(O)OC[C@H](N)C(=O)[O-])OC(=O)CCCCCCCCCCCCCCC.[Na+]` [DPPS sodium] here?
A: Its value is 0.201 ± 0.004 mM.

Q: With `CCCCCCCC/C=C\CCCCCCCCC1(CCCCCCCC/C=C\CCCCCCCC)OC[C@H](CCCN(C)C)O1` [KC3-OA, 3-((S)-2,2-di((Z)-octadec-9-en-1-yl)-1,3-dioxolan-4-yl)-N,N-dimethylpropan-1-amine] as the molecule, how does the “induction of a proinflammatory signature by UUGU LNPs by ICL” value [1] read?
A: The value was “most efficient”.

Q: And the “transfection activity” value [4]?
A: Its value is “highest activity”.

Q: And the “mRNA endosomal escape and translation / mRNA transfection” value [2]?
A: The value was “relatively efficient”.

Q: What about the “transfection activity” value [2] of the same molecule?
A: The value was “highest activity”.

Q: And the “% of main lipid peak to To” value ([3]; 24 h)?
A: The value was 88.9 ± 0.5%.

Q: What about the “% of main lipid peak to To” value ([3]; 48 h) of the same molecule?
A: Its value is 84.6 ± 0.9%.

Q: And the “% of main lipid peak to To” value ([3]; 72 h)?
A: Its value is 79.0 ± 0.1%.

Q: For `CCCCCCCC/C=C\CCCCCCCC(=O)OC[C@H](CCCN(C)C)OC(=O)CCCCCCC/C=C\CCCCCCCC` [AKG-OA-DM3, (S)-5-(dimethylamino)pentane-1,2-diyl dioleate], which “mRNA endosomal escape and translation / mRNA transfection” value [2] is on record?
A: Its value is “relatively poor for mRNA transfection”.

Q: With `CCCCCCCCCCCCCCCCCC(=O)OC[C@H](COP(=O)(O)OC[C@H](N)C(=O)[O-])OC(=O)CCCCCCCCCCCCCCCCC.[Na+]` [DSPS sodium] as the molecule, how does the “Solubility, mM phosphatidylserine” value [6] read?
A: The value was 0.111 ± 0.009 mM.

Q: Which “Solubility, mM phosphatidylserine” value [6] does the source give for `CCCCCCCCCCCCCCCCCC(=O)OC[C@H](COP(=O)(O)OC[C@H](N)C(=O)O)OC(=O)CCCCCCCCCCCCCCCCC.N` [DSPS ammonium] here?
A: The value was 0.034 ± 0.004 mM.
